The text below walks through data of patent US10293016B2, “Use of instant asparagus powder in food, medicine and health food” (Q[…] DEVELOPMENT CO., LTD, priority 2013, dated 2019).

In test [1] the test system is Neurotransmitter in Serum of Rat. In words: CSM test, level of neurotransmitter in serum. Format: in vivo. Conditions: dosage 3 mg/Kg. An excerpt: (§1) The chronic emotional stress-response model takes as an emotional stress-response resource an uncertain stimulation of drinking by an empty bottle, so as to investigate the influence which the emotional stress of 14 days exerts on the behaviors, and neuroendocrine and immune functions of the rats.
After adaptation for one week, the rats were randomly grouped. Except the normal group, the model groups were fed in individual cages and subjected to the uncertain stimulation of drinking by an empty bottle to establish the anxiety stress models. The specific method is as follows: the training of timely feeding water lasts for 7 days, that is, water was being given to the animals for 10 minutes every day at 9:00-9:10 and 17:00-17:10, and at other times, the water bottles were taken away, without water given. After the period of timely feeding water was ended, the stress-response experiment started, wherein the uncertain stimulation of the empty bottle was given once or twice a day in the above two periods of time for two weeks. The normal group was not subjected to any treatment, and was fed with water and food freely. The behaviors observed included attacking (biting or attacking the empty bottle and the cage), exploratory (moving around and visiting the place where the water bottle was located), and grooming behaviors (combing fur and washing face). The specific method was: the 10 minutes of the empty bottle stimulation was equally divided into 10 periods of time, the above-mentioned three types of behaviors of each rat were recorded in each period of time, wherein it was marked as “1” if the behavior appears, otherwise it was marked as “0”. The total score obtained in the observation within 10 minutes was between 0 and 10. […] The average score of the first 3 days and the last 3 days of the 14 observation days was used for statistical analysis. The samples were gathered when the experiment was ended to detect the neuroendocrine and immune indices.
The normal control group was not subjected to any treatment; all the other groups were subjected to the stimulation.
(§2) The following endocrine levels were detected in the test: (1) plasma cortisol concentration, (2) catecholamine level, (3) 5-hydroxytryptamine level.

For test [2], the system named is Neurotransmitter in Hippocampus of Rat. In words: CSM test, level of neurotransmitter in hippocampus. Conditions: dosage 3 mg/Kg. Format: in vivo.
Source text: as §1
After adaptation for one week, the rats were randomly grouped. Except the normal group, the model groups were fed in individual cages and subjected to the uncertain stimulation of drinking by an empty bottle to establish the anxiety stress models. The specific method is as follows: the training of timely feeding water lasts for 7 days, that is, water was being given to the animals for 10 minutes every day at 9:00-9:10 and 17:00-17:10, and at other times, the water bottles were taken away, without water given. After the period of timely feeding water was ended, the stress-response experiment started, wherein the uncertain stimulation of the empty bottle was given once or twice a day in the above two periods of time for two weeks. The normal group was not subjected to any treatment, and was fed with water and food freely. The behaviors observed included attacking (biting or attacking the empty bottle and the cage), exploratory (moving around and visiting the place where the water bottle was located), and grooming behaviors (combing fur and washing face). The specific method was: the 10 minutes of the empty bottle stimulation was equally divided into 10 periods of time, the above-mentioned three types of behaviors of each rat were recorded in each period of time, wherein it was marked as “1” if the behavior appears, otherwise it was marked as “0”. The total score obtained in the observation within 10 minutes was between 0 and 10. […] The average score of the first 3 days and the last 3 days of the 14 observation days was used for statistical analysis. […]
as §2

The test system of test [3] is Mouse. In words: Analysis of times of locomotor activities. It counts as in vivo. From the text:
The condition of the locomotor activity of an animal reflects the functional status of its central nervous system. The central stimulant drug can prominently increase the locomotor activity but decrease the exploratory behavior, and a certain dosage of antipsychotic drug can decrease the exploratory behavior without influencing the locomotor activity. A YLS-1A multi-functional mouse locomotor activity recorder is used to record the situation of locomotor activity of the mouse at different points of time after drug administration.

Test [4] has as its system Mouse. In words: Elevated plus maze model (EPM) test. It counts as in vivo. From the text:
The elevated plus maze has been widely used in anxiety experiments of the small rodent. This system is used to detect the situation of decreasing animals' inherent aversion to a high position and a open field, after using the anxiety drug. The rodent (e.g. rat, mouse), which have the exploratory behavior, will actively explore the open arms after placed in the elevated plus maze, but fear the high and open environment in the open arms. The antianxiety drug increases the open-arm exploratory activities, while the anxiety drug has the opposite effect.
The elevated plus maze has a pair of open arms and a pair of closed arms. The animal, after a period of time of adaptation, is rapidly placed in the central platform of the EPM in such a way that its head directly faces one of the open arms. A tracking camera is used to record following: (1) times of entering the open arm (open arm entry, OE) within 5 minutes, wherein it is considered as one time of entering an open arm when all the four paws of the rat have entered any open arm, and meanwhile this entry activity is finished when one paw completely withdraws from this arm; (2) duration of staying in an open arm (open arm time, OT) within 5 minutes, wherein the unit of the duration of staying in an open arm is “second”; (3) times of entering a closed arm (close arm entry, CE) within 5 minutes, wherein it is considered as one time of entering a closed arm when all the four paws of the rat have entered any closed arm; (4) duration of staying in a closed arm (close arm entry, CT) within 5 minutes, wherein the unit of duration of staying in a closed arm is “second”. The following is calculated from (1)-(4), respectively: […]
(1) the total number of the times of the open arm entry and the closed arm entry (OE+CE): representing the motion vitality of the rat;
(2) the ratio of the times of the open arm entry (OE %); the times of the open arm entry/(OE+CE)×100%;
(3) the ratio of the duration of staying in the open arms (OT %), i.e. the duration of staying in the open arms/(OT+CT)×100%. Each rat is tested for 5 minutes. OE % and OT % represent the indices of the antianxiety effect.

Test [5] relates to Mouse. In words: Chronic emotional stress-response model (CSM) test, behaviors. It counts as in vivo, rat. Conditions: CSM empty bottle stimulation, dosage 3 mg/Kg, n=10.

The structures appear in SMILES notation.

As for `CN1C(=O)CN=C(c2ccccc2)c2cc(Cl)ccc21` [DZP, diazepam], in test [1] (n=10, negative control 0.86 ± 0.15, p<0.05), the “5-HT” value is 1.12 ± 0.13 ng/mL. The “NE” value in test [1] (n=10, negative control 1.15 ± 0.16) came to 1.00 ± 0.13 pg/mL. The “DA” value in test [1] (n=10, negative control 5.45 ± 0.76) stood at 6.00 ± 1.70 ng/mL. The “NA” value in test [1] (n=10, negative control 15.08 ± 0.71) was found to be 14.67 ± 0.36 pg/mL; in test [2] (n=10, negative control 40.97 ± 13.25) it was 37.22 ± 10.05 pg/mL. Further, the “COR (cortisol)” value in test [1] (n=10, negative control 49.94 ± 7.26, p<0.05) is 28.94 ± 6.36 ng/mL. Moreover, the “NE (norepinephrine)” value in test [2] (n=10, negative control 0.104 ± 0.048) stood at 0.080 ± 0.053 pg/mL. For the same compound, the “Dopamine” value in test [2] (n=10, negative control 9.542 ± .93) is given as 11.38 ± 4.33 ng/mL. Moreover, in the test with Mouse [3] (15-20 min after administration, dosage 3 mg/Kg, n=10, negative control 86 ± 35), the “Times of Locomotor Activity 15-20 min (times)” value was 48 ± 46 times. The “Times of Locomotor Activity 30-35 min (times)” value in the test with Mouse [3] (30-35 min after administration, dosage 3 mg/Kg, n=10, negative control 64 ± 15, p<0.05) is recorded as 32 ± 16 times. Moreover, the “Times of Locomotor Activity 60-65 min (times)” value with Mouse [3] (60-65 min after administration, dosage 3 mg/Kg, n=10, negative control 53 ± 9, p<0.05) is listed as 24 ± 6 times. In addition, the “times of locomotor activities of the mouse (in words)” value with Mouse [3] (with the dosage of administration) is “prominently reduce the times of locomotor activities of the mouse at the two periods of time, namely, 30 minutes and 60 minutes”. In addition, the “OE + CE (times)” value in the test with Mouse [4] (EPM 5 minutes, dosage 3 mg/Kg, n=10, mean±SD, negative control 10.8 ± 3.9) was found to be 12.9 ± 5.2 times. The “OT (%)” value with Mouse [4] (EPM 5 minutes, dosage 3 mg/Kg, n=10, negative control 20.1 ± 4.5, p<0.05) is 42.3 ± 5.7 %. In addition, the “OE (%)” value with Mouse [4] (EPM 5 minutes, dosage 3 mg/Kg, n=10, negative control 22.8 ± 5.9, p<0.05) worked out at 40.9 ± 5.2 %. The “values of OT % and OE % and total number of the times of entering arms (in words)” value in the test on Mouse [4] (EPM, with the dosage of administration) is “can increase the values of OT % and OE % without increasing the total number of the times of entering arms”. Besides, the “Grooming Behavior (%)” value in the test on Mouse [5] (negative control 2.38 ± 1.16) is 1.78 ± 1.06%. Further, the “Exploratory Behavior (%)” value in the test with Mouse [5] (negative control 2.44 ± 0.88) was found to be 1.09 ± 0.52%. Also, in the test on Mouse [5] (negative control 2.56 ± 2.09), the “Attacking Behavior (%)” value was found to be 0.69 ± 0.52%.
